Assay results from ChEMBL document CHEMBL1154879, “Discovery of (thienopyrimidin-2-yl)aminopyrimidines as potent, selective, and orally available pan-PI3-kinase and dual pan-PI3-kinase/mTOR inhibitors for the treatment of cancer” (J Med Chem, 2010).

Assays:
[1] = biological target: Phosphatidylinositol 4,5-bisphosphate 3-kinase catalytic subunit beta isoform (Homo sapiens, UniProt P42338); experiment: Inhibition of recombinant PI3Kbeta assessed as PIP3 product formation by fluorescence polarization assay
Phosphatidylinositol 4,5-bisphosphate 3-kinase catalytic subunit beta isoform, sequence (P42338 whole entry, canonical isoform): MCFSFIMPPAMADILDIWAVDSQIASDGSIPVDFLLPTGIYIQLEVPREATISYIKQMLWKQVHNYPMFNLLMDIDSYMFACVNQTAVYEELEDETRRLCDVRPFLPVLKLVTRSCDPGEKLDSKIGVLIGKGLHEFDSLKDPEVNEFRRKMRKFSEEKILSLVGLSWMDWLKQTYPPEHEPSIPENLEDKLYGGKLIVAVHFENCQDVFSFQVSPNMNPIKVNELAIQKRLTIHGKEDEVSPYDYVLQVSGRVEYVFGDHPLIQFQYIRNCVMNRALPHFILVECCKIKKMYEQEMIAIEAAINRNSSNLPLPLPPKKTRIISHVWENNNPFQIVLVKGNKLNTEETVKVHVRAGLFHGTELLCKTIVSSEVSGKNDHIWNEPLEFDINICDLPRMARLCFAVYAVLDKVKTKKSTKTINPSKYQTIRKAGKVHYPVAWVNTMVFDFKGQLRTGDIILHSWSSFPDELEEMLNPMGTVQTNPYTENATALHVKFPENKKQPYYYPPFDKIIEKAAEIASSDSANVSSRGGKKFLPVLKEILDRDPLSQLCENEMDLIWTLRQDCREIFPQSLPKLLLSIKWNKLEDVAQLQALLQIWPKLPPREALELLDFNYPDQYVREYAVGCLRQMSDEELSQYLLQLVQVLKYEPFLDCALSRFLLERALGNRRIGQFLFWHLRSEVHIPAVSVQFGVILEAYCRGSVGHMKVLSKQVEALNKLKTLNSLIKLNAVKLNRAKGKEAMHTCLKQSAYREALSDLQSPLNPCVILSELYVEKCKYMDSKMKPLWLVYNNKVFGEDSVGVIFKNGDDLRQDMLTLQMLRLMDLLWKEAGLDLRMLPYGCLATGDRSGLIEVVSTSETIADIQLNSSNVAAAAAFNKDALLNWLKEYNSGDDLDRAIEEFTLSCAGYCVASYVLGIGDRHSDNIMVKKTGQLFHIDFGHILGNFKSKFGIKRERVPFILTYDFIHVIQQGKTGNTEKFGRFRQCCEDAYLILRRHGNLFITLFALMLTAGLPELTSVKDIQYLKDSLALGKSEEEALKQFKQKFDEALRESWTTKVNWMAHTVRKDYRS

[2] = biological target: Phosphatidylinositol 4,5-bisphosphate 3-kinase catalytic subunit alpha isoform (Homo sapiens, UniProt P42336)
Phosphatidylinositol 4,5-bisphosphate 3-kinase catalytic subunit alpha isoform, sequence (P42336 whole entry, canonical isoform): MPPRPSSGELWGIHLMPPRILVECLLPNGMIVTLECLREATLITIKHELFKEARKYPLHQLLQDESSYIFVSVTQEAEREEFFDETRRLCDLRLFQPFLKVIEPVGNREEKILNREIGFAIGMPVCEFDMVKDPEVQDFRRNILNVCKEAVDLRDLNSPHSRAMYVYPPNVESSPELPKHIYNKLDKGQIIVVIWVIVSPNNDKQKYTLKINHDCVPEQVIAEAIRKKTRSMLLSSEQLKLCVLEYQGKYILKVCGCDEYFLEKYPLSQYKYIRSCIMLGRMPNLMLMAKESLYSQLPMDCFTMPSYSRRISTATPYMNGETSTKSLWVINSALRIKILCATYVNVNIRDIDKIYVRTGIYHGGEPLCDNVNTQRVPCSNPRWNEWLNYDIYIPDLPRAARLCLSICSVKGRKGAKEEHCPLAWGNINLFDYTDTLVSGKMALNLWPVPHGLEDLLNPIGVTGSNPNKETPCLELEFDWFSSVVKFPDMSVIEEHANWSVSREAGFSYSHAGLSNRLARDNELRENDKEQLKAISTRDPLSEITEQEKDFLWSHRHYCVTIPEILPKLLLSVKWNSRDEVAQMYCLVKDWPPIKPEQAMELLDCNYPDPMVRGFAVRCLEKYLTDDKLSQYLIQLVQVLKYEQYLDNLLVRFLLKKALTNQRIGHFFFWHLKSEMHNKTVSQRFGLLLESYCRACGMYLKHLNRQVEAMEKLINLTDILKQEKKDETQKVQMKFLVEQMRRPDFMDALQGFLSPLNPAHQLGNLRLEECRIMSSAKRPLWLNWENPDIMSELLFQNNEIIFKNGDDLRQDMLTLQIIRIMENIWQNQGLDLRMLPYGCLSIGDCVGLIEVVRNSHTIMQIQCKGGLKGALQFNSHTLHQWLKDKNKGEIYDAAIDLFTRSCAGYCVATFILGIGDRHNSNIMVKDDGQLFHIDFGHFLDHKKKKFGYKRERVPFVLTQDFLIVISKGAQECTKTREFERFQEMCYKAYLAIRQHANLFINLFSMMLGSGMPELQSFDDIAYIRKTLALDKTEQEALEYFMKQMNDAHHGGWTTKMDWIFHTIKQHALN

[3] = biological target: T1, Phosphatidylinositol 4,5-bisphosphate 3-kinase catalytic subunit delta isoform (Homo sapiens, UniProt O00329)
T1 sequence (O00329 whole entry): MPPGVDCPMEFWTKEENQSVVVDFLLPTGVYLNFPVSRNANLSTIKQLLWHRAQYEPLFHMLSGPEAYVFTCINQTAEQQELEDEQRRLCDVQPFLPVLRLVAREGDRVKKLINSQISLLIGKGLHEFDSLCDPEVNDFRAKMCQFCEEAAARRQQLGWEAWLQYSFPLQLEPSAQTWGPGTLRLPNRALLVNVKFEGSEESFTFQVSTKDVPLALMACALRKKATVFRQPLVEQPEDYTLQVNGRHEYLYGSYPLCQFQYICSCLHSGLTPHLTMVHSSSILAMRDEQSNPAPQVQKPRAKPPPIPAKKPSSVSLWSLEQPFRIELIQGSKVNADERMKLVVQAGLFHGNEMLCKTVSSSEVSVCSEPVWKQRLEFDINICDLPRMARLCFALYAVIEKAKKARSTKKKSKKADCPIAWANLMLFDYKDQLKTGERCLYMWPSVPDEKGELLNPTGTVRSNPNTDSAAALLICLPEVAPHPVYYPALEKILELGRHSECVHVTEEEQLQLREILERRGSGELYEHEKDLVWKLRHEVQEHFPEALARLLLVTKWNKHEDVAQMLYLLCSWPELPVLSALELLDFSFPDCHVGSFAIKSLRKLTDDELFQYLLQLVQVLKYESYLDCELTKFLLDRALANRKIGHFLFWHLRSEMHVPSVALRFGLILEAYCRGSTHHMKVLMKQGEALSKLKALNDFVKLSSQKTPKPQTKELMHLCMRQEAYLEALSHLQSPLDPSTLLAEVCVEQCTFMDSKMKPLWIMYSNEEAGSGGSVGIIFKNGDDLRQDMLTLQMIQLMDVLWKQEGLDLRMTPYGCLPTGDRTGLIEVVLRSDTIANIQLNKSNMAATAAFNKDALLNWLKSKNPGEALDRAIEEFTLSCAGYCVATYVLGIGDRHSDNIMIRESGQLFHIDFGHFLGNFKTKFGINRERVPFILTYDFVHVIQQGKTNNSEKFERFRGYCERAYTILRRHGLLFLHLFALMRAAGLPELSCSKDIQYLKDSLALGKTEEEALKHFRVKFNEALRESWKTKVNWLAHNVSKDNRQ

[4] = biological target: Phosphatidylinositol 4,5-bisphosphate 3-kinase catalytic subunit gamma isoform (Homo sapiens, UniProt P48736)
Phosphatidylinositol 4,5-bisphosphate 3-kinase catalytic subunit gamma isoform, sequence (P48736 whole entry, canonical isoform): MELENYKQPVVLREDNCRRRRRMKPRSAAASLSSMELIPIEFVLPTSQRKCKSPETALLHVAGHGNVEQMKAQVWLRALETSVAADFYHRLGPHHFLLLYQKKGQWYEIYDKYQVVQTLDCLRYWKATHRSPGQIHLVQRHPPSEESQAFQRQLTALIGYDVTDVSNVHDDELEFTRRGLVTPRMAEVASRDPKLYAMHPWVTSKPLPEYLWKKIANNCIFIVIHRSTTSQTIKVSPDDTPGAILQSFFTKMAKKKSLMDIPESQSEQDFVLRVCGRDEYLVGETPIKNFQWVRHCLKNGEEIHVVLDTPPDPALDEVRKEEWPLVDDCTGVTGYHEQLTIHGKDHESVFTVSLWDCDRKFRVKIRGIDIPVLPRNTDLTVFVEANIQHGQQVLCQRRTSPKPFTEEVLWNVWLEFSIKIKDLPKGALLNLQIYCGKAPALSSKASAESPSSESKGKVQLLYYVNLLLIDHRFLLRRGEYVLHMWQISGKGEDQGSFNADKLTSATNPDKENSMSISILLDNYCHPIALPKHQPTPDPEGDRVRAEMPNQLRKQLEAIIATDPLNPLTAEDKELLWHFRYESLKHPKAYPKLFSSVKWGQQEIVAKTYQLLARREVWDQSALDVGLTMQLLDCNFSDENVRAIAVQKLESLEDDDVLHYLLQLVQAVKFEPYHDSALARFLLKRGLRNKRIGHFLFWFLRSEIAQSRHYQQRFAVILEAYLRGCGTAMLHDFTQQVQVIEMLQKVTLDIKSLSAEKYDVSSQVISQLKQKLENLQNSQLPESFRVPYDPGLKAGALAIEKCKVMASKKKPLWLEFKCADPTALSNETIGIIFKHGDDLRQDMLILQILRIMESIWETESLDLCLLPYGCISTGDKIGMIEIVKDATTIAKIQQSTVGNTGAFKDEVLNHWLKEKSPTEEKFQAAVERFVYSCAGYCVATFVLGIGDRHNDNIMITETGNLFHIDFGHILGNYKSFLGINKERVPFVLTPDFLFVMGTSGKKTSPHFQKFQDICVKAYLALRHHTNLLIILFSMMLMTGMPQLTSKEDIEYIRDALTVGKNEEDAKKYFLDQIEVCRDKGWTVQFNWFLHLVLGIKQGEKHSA

[5] = Antiproliferative activity against human MCF7.1 cells expressing PI3Kalpha mutant after 3 to 4 days; type: functional, cell-based
PC-3 = experiment: Antiproliferative activity against human PC3 cells deficient in PTEN in after 3 to 4 days; type: functional, cell-based
[6] = Clearance in Sprague-Dawley rat at 1 mg/kg, iv; type: ADME, organism-based; set-up: dose 1 mg/kg, route intravenous; settings: in vivo
[7] = Oral bioavailability in Sprague-Dawley rat at 2 mg/kg; type: ADME, organism-based; settings: in vivo
[8] = Clearance in Sprague-Dawley rat liver microsomes; type: ADME, Microsome
[9] = biological target: Serine/threonine-protein kinase mTOR (Homo sapiens, UniProt P42345)
[10] = Clearance in Beagle dog at 1 mg/kg, iv; type: ADME, organism-based, Canis lupus familiaris; set-up: dose 1 mg/kg, route intravenous; settings: in vivo
[11] = Volume of distribution at steady state in Sprague-Dawley rat at 1 mg/kg, iv; type: ADME, organism-based; set-up: dose 1 mg/kg, route intravenous; settings: in vivo, read-out: Vdss
[12] = Oral bioavailability in Sprague-Dawley rat at 5 mg/kg, po; type: ADME, organism-based; settings: in vivo

Row | Structure (SMILES) | IC50 [1] [nM] | IC50 [2] [nM] | IC50 [3] [nM] | IC50 [4] [nM] | IC50 [5] [nM] | IC50 (PC-3) [nM] | clearance [6] [mL/min/kg] | bioavailability [7] [%] | CLint scaled [8] [mL/min/kg] | IC50 [9] [nM] | clearance [10] [mL/min/kg] | Vd [11] [L/kg] | bioavailability [12] [%]
1 | CS(=O)(=O)N1CCN(Cc2cc3nc(-c4ccncc4)nc(N4CCOCC4)c3s2)CC1 | 5400 | 2900 | 310 | 5100 |  |  |  |  |  |  |  |  | 
2 | CS(=O)(=O)N1CCN(Cc2cc3nc(-c4cccnc4)nc(N4CCOCC4)c3s2)CC1 | 14 | 21 | 12 | 19 | 1400 | 1800 |  |  |  |  |  |  | 
3 | CC(C)(O)c1cc2nc(-c3cccc4[nH]ncc34)nc(N3CCOCC3)c2s1 |  | 22 |  |  | 1400 | 1400 | 16 | 29 | 40 | 130 |  |  | 
4 | CS(=O)(=O)N1CCN(Cc2cc3nc(-c4cccc(CO)c4)nc(N4CCOCC4)c3s2)CC1 |  | 1.8 | 1.4 |  | 320 | 75 |  |  |  |  |  |  | 
5 | CS(=O)(=O)N1CCN(Cc2cc3nc(-c4ccc(N)cc4)nc(N4CCOCC4)c3s2)CC1 | 1400 | 240 | 100 | 1300 | 2700 | 1200 |  |  |  |  |  |  | 
6 | OCc1cc2nc(-c3cccc4[nH]ncc34)nc(N3CCOCC3)c2s1 |  | 29 |  |  |  | 1200 |  |  | 170 |  |  |  | 
7 | CC(O)c1cc2nc(-c3cccc4[nH]ncc34)nc(N3CCOCC3)c2s1 (configuration not stated) |  | 28 |  |  |  | 1100 | 101 | 17 | 95 |  |  |  | 
8 | CS(=O)(=O)N1CCN(Cc2cc3nc(-c4ccccc4)nc(N4CCOCC4)c3s2)CC1 |  | 430 |  |  | 3700 | 3700 |  |  |  |  |  |  | 
9 | CC(=O)NCc1cc2nc(-c3cccc4[nH]ncc34)nc(N3CCOCC3)c2s1 |  | 16 |  |  |  | 1500 | 86 | 34 | 40 |  |  |  | 
10 | CS(=O)(=O)N1CCN(Cc2cc3nc(-c4cccc5[nH]ncc45)nc(N4CCOCC4)c3s2)CC1 [PICTILISIB] |  |  |  |  | 340 | 390 |  |  |  |  |  |  | 
11 | CS(=O)(=O)N1CCN(Cc2cc3nc(-c4cccc(O)c4)nc(N4CCOCC4)c3s2)CC1 | 11 | 1.6 | 0.9 | 20 | 36 | 21 |  |  |  |  |  |  | 
12 | CS(=O)(=O)N1CCN(Cc2cc3nc(-c4ccc(N)nc4)nc(N4CCOCC4)c3s2)CC1 | 60 | 5.5 | 6.6 |  | 200 | 270 |  |  |  |  | 16 |  | 
13 | CS(=O)(=O)N1CCN(Cc2cc3nc(-c4cnc(N)nc4)nc(N4CCOCC4)c3s2)CC1 | 38 |  | 2.4 | 8.4 |  | 300 | 24 |  |  | 29 | 22 | 5.6 | 75
14 | Cc1nc(N)ncc1-c1nc(N2CCOCC2)c2sc(CN3CCN(S(C)(=O)=O)CC3)cc2n1 | 6.2 | 1.1 | 0.7 |  | 290 | 230 |  |  |  | 880 |  |  | 
